Experimental data as given in ChEMBL document CHEMBL3988442, “University of Dundee, Small-Polar-MMV Screening Library” (2021).
pIC50: −log10 of the molar value.

Target: T1, Coenzyme A biosynthesis bifunctional protein CoaBC (Mycobacterium tuberculosis (strain ATCC 25618 / H37Rv), UniProt P9WNZ1)
T1 sequence (P9WNZ1 whole entry): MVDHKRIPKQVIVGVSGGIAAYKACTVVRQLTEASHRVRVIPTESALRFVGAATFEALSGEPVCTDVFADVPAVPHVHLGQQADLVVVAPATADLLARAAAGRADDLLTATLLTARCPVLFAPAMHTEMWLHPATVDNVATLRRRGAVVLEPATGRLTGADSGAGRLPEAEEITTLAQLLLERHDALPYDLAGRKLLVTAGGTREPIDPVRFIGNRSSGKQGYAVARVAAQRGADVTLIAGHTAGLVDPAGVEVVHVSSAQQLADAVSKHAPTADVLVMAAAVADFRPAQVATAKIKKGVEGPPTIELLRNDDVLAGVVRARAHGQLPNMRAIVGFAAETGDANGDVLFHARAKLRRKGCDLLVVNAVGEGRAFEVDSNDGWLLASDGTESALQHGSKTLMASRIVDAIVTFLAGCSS
Test: Biomol Green assay for MtCoaBC inhibitor, OD650 read
Type: functional

SMILES | pIC50
Cc1cccc(CS(=O)(=O)NCc2nn(C)c3c2COCC3)c1 | < 4.52
O=C(NCCC(=O)N1CCCC1)c1ccc(SCc2cccnc2)cc1 | < 4.52
CCN(CC)C1CCN(C(=O)NCc2cccc(-n3cccn3)c2)C1 (stereo unspecified) | < 4.52
COc1cccc(Cc2nc3c([nH]2)CC(C)(C)CNC3=O)c1OC | < 4.52
CCc1nc(NS(=O)(=O)c2cccc(F)c2C)no1 | < 4.52
Cc1nn(C)c(Cl)c1C1CCCN1Cc1nc(-c2ccco2)no1 (stereo unspecified) | < 4.52
CCOCC1CN(C(=O)C2=CCCC2)Cc2cnn(C)c21 (stereo unspecified) | < 4.52
COCCCN(Cc1ccccn1)S(=O)(=O)N(C)C | < 4.52
O=C1CN(Cc2cn(CC3CCCN(C4CCSCC4)C3)nn2)CCN1 (stereo unspecified) | < 4.52
NC(=O)CCNC(=O)C1(N2CCCCC2)Cc2ccccc2C1 | < 4.52
CC(C)c1[nH]c2ncccc2c1CN1CCC(O)CC1 | < 4.52
Cc1nc(CN2CCCC2Cn2cncn2)nc2ccccc12 (stereo unspecified) | < 4.52
CC(C)c1noc(C[S+]([O-])CC(=O)Nc2ccc(F)c(F)c2)n1 (stereo unspecified) | < 4.52
Cc1cc(C)cc(-n2ncc3c2CCCC3N)c1 (stereo unspecified) | < 4.52
O=C(NCc1ccccc1)C1CN(c2ccccn2)CCO1 (stereo unspecified) | < 4.52
CC(C)=CCn1ncc(N2CCOCC2)cc1=O | < 4.52
Cc1ccc(CN2CCC3(CC2)C(=O)Nc2ccccc23)s1 | < 4.52
CCn1ncc2c1NC(=O)CC2c1cnc(-c2ccccn2)nc1 (stereo unspecified) | < 4.52
COC(=O)C(C)CN(C)S(=O)(=O)c1c(Br)cc2[nH]c(=O)oc2c1Cl (stereo unspecified) | < 4.52
CN(C)C(=O)CN1CCC2(CCCN(Cc3cccn3C)C2)C1=O (stereo unspecified) | < 4.52
CCC(=O)N1CCCCC1c1nc(O)c2c(n1)CN(S(=O)(=O)CC)CC2 (stereo unspecified) | < 4.52
Cc1ccc(OCCC(=O)N2CCOCC2c2ncon2)cc1C (stereo unspecified) | < 4.52
COc1c(C)cc(CNCc2ccnc(N3CCOCC3)c2)cc1C | < 4.52
COc1ccc(CN2CCC3(CCCN(C)C3=O)C2)c(OC)c1C (stereo unspecified) | < 4.52

SMILES | pIC50
COCCN1CCN(Cc2cnc(C3(C)CCCCO3)nc2)CC1 (stereo unspecified) | < 4.30
O=C(NCc1ccco1)[C@H]1C[C@@H]2CCN(c3ncccn3)C[C@H]2O1 | < 4.52
CC(=O)N1CC(c2ccnc(Nc3nccs3)n2)C1 | < 4.52
CCN1CCOCC2(CCCN(C(=O)c3cnccn3)C2)C1 (stereo unspecified) | < 4.52
COc1c(C2SCC(=O)Nc3[nH]ncc32)cc2c(c1OC)OCO2 (stereo unspecified) | < 4.52
Fc1cccc(-c2nc(CN3CCCC(Cn4cncn4)C3)co2)c1 (stereo unspecified) | < 4.52
O=C(NCC(O)c1ccsc1)c1sccc1OC(F)F (stereo unspecified) | < 4.52
CCC1CCCCN1C(=O)Cn1nc(-c2ccc(C)o2)cc(N)c1=O (stereo unspecified) | < 4.30
Cc1cnn(CC2CCCN2Cc2nnc(-c3ccccc3)o2)c1 (stereo unspecified) | < 4.52
Cc1nn(C)cc1S(=O)(=O)N[C@@H]1CCC[C@@H](N2CCCC2)[C@@H]1O | < 4.52
COc1ccccc1N1CCN(CC(=O)NC(C)c2ccco2)CC1 (stereo unspecified) | < 4.52
COc1c(C2CCCN2CC(=O)Nc2nccs2)c(C)nn1C (stereo unspecified) | < 4.52
Cc1ccc(CNC(=O)COc2ccc3c(c2)OCC3O)cc1 (stereo unspecified) | < 4.52
CC(C)c1noc(CN2CCN(C(=O)c3cc(Cl)ccc3F)CC2)n1 | < 4.52
Cc1nc(C)n(CC2CN(S(C)(=O)=O)Cc3nccn3C2)n1 (stereo unspecified) | < 4.52
CCc1cnc(CN(C)C2CCN(CCCNS(C)(=O)=O)C2)o1 (stereo unspecified) | < 4.52
Cc1nc(Nc2nnc(C)s2)cc(C2CCCN2C)n1 (stereo unspecified) | < 4.52
c1cncc(CN2CCc3ncnc(C4CCOC4)c3CC2)c1 (stereo unspecified) | < 4.52
O=C(NCc1ccco1)[C@H]1C[C@@H]2CCN(c3nncs3)C[C@H]2O1 | < 4.52
Cc1nn2cccnc2c1C(=O)N1CCCC(n2ccnc2C)C1 (stereo unspecified) | < 4.52
COCCC1CCN([C@@H]2c3ccccc3C3(CCNCC3)[C@H]2O)CC1 | < 4.52
C1=C(CNC2CCc3ncnn3C2)COc2ccccc21 (stereo unspecified) | < 4.52
CN1CCOC(CNCc2cccc(OC(F)(F)F)c2)C1 (stereo unspecified) | < 4.52
Cc1ccc(CN2CCN(C3CCCC3)CC2CCO)o1 (stereo unspecified) | < 4.52

SMILES | pIC50
CCN1CCCC1CNC(=O)Cc1c(-c2ccc(Cl)cc2)n[nH]c1C (stereo unspecified) | < 4.52
O=C(CN1CCCC(c2ccn[nH]2)C1)Nc1nncs1 (stereo unspecified) | < 4.52
CC(=O)Nc1nc(C(=O)N2CCCC2c2noc(C3CC3)n2)cs1 (stereo unspecified) | < 4.52
Cc1cccc(C(=O)NCC2CCS(=O)(=O)C2)n1 (stereo unspecified) | < 4.52
Cc1ccc(-c2cc(C(=O)NCCCc3csc(N)n3)[nH]n2)o1 | < 4.52
CC(C)N(CC(C)(C)O)C(=O)NC1CC1 | < 4.52
C[S+]([O-])c1nncn1CC(=O)c1ccc(Cl)c(Cl)c1 (stereo unspecified) | < 4.52
CCS(=O)(=O)c1ccc2oc([C@H]3CCN(Cc4ccccn4)C3)nc2c1 | < 4.52
Cc1sc(NC(=O)CN(C)CCOc2cccc(F)c2)c(C)c1C | < 4.52
COCCC(=O)NCc1ccc(-c2ccccc2C(=O)O)nc1 | < 4.52
CCc1ncncc1C(=O)NCCNS(=O)(=O)c1ccccc1 | < 4.30
Cc1ccnc(N2C[C@@H]3CC[C@H](C2)N(CC2CCC2)C3=O)n1 | < 4.52
Cn1cnc2cc(NC(=O)c3n[nH]c4c3CCC4)ccc21 | < 4.52
CC1(C)CN(CCC(=O)NCc2cccc(Cl)c2)CC[C@]1(C)O | < 4.52
Cc1cccc(NC(=O)NC2CCC3(C2)OCCO3)c1Cl (stereo unspecified) | < 4.52
CCC(c1ccc(F)cc1F)N1CCN(CCO)CC1 (stereo unspecified) | < 4.52
O=C(C1CC1)N1CCC(c2nc(O)c3c(n2)CCN(C2CCCC2)C3)C1 (stereo unspecified) | < 4.52
CC1COCCN1C(=O)Cc1cc(Cl)c2c(c1)OCCO2 (stereo unspecified) | < 4.52
CCc1nc(C)c(CN2CCCC(c3nn(C)c(=O)n3CC)C2)[nH]1 (stereo unspecified) | < 4.52
NC(Cc1nc(-c2ccccc2)no1)c1ccccc1 (stereo unspecified) | < 4.52
O=C(CN1CC(n2cccn2)C1)NCCC1=CCCCC1 | < 4.52
CCc1ncc(C(=O)NCC2CCN(Cc3ccncc3)CC2)cn1 | < 4.52
CS(=O)(=O)NC1CCN(C(=O)NCCc2ccccc2F)CC1 | < 4.52
Cn1ncnc1NS(=O)(=O)c1ccc(F)cc1Cl | < 4.52

SMILES | pIC50
Cn1nccc1-c1ccc2nc(C3CCN(CC4CC4)CC3)nn2c1 | < 4.52
CC(C)COCC(NC(=O)c1cnccn1)c1ccco1 (stereo unspecified) | < 4.52
CCc1nccn1-c1nccnc1C1CCN(C(=O)COC)CC1 | < 4.52
O=C(NCc1nc(NC2CCCC2)c2cc(Cl)ccc2n1)c1ccoc1 | < 4.52
CC1CCN(c2nc(O)cc(C3CC(=O)N(C4CCCCC4)C3)n2)CC1 (stereo unspecified) | < 4.52
Cc1cc(NC(=O)CN2CCc3cnc(C(C)C)nc3C2)on1 | < 4.52
Cc1cc(C)n(C2CN(c3ncnc4c3CCC4)C2)n1 | < 4.52
Cc1nn(CCO)c(C)c1CNCc1cccnc1N(C)C | < 4.52
Nc1ccncc1-n1cc(CCO)cn1 | < 4.52
CCCNC(=O)NC(C)c1ccccn1 (stereo unspecified) | < 4.52
O=C([C@H]1C[C@@H]2CCN(c3cccc(F)c3)C[C@H]2O1)N1CCCC1 | < 4.52
COc1cc(CNC2CCc3nc(C)nn3C2)cc2c1OCO2 (stereo unspecified) | < 4.52
CS(=O)(=O)c1ccc(-c2c[nH]c([C@@H]3COCCN3)n2)cc1 | < 4.52
CC(C)c1nc(CNC2CCN(C(=O)OC(C)(C)C)CC2)cs1 | < 4.52
NS(=O)(=O)c1cc(C(=O)N2CCCCC2)cs1 | < 4.52
Cc1cccc(NC2CCN(C(=O)Nc3ccccn3)CC2)n1 | < 4.52
Cc1csc(CCNCc2cnc3c(c2)c(C)nn3C)n1 | < 4.52
O=C(NCC1CC1)[C@H]1C[C@@H]2CN(S(=O)(=O)Cc3ccccc3)C[C@H]1O2 | < 4.52
Cc1cnc(C)c(-c2cccc(-c3ccn(CCN4CCCC4)n3)c2)n1 | < 4.52
O=S(=O)(c1cccc(F)c1)N1C[C@@H]2COC[C@]2(COCC2CC2)C1 | < 4.52
Cc1nc(C2CCCN(C(=O)c3c(C)nn4cccnc34)C2)no1 (stereo unspecified) | < 4.52
CCn1nc(C)c(-c2cncn2Cc2ccccc2CN(C)C)c1C | < 4.52
CSc1nc(C)cc(N2CCC(c3ncc[nH]3)CC2)n1 | < 4.52
COCCN(Cc1cnn(C)c1)CC1CCN(C(C)C)CC1 | < 4.52

SMILES | pIC50
Cc1noc(C)c1CN1CCn2cc(CNc3ccccn3)nc2C1 | < 4.52
CCOc1ccc(C(=O)CC(SC2CCCCC2)C(=O)O)cc1 (stereo unspecified) | < 4.30
O=C(O)c1cc(-c2ccoc2)cc(S(=O)(=O)N2CCSCC2)c1 | < 4.52
COc1cc(O)cc2c1C(=O)CC(c1ccc(O)cc1)O2 (stereo unspecified) | < 4.52
Cc1cccc(-c2cc(C(=O)O)sn2)c1 | < 4.30
COc1ccccc1N1CCC(CNCc2ccc(C#N)cc2)C1 (stereo unspecified) | < 4.52
Cc1cc(NC(=O)C2CCN(c3ncccc3C#N)CC2)no1 | < 4.30
COc1ccccc1C1CC(=O)Nc2c1c(=O)[nH]n2C1CCCC1 (stereo unspecified) | < 4.52
Cc1cc(C2CCCN2CCC(=O)N2CCc3sccc3C2)no1 (stereo unspecified) | < 4.52
CN(C)C(=O)c1ccc(C(C(=O)O)N(C)Cc2ccccc2Cl)cc1 (stereo unspecified) | < 4.52
CCC(CO)Nc1nc(C(F)F)nc2ccccc12 (stereo unspecified) | < 4.52
COCCN(C)CC(=O)N1CCCC2(CCC(=O)N(CC3CC3)C2)C1 (stereo unspecified) | < 4.52
Cc1nccnc1-n1c(COCC(=O)O)nc2c(C)cccc21 | < 4.30
Cc1cc(C(F)(F)F)nn1CC(C)C(=O)Nc1ccccn1 (stereo unspecified) | < 4.52
COc1ccc(C2CN(c3cc(C)ncn3)CCN2C(C)=O)cc1 (stereo unspecified) | < 4.52
CC(C)CCn1c(=O)n(CCn2cccc2)c2cc(C(=O)O)cnc21 | < 4.52
CN(C)CCO[C@@H]1CC[C@H]2[C@H]1OCCN2C(=O)c1ccncc1 | < 4.52
CCC[C@@H]1CN(Cc2c[nH]nc2-c2ccc(OC)cc2)C[C@H]1NC(C)=O | < 4.52
Cc1cc(C)n(C2CN(CC(=O)N(C)Cc3cnn(C)c3)C2)n1 | < 4.52
O=c1n(CC2COCCO2)nc(CC2CCNCC2)n1-c1ccccc1 (stereo unspecified) | < 4.52
